Source: ChEMBL document CHEMBL1671662, “In vitro activities of telavancin and six comparator agents against anaerobic bacterial isolates” (2009)
In brackets after ≈: the same amount, converted by molar mass.

Columns and labels:
Clostridioides difficile = experiment: Antibacterial activity against Clostridium difficile by CLSI M11-A6 agar dilution method; type: functional
Clostridium hathewayi = experiment: Antibacterial activity against Clostridium hathewayi by CLSI M11-A6 agar dilution method; type: functional; conditions: Hungatella hathewayi
Clostridium perfringens = experiment: Antibacterial activity against Clostridium perfringens by CLSI M11-A6 agar dilution method; type: functional
Clostridium butyricum = experiment: Antibacterial activity against Clostridium butyricum by CLSI M11-A6 agar dilution method; type: functional
[1] = system: Clostridium celerecrescens; experiment: Antibacterial activity against Clostridium celerecrescens by CLSI M11-A6 agar dilution method; type: functional; conditions: Lacrimispora celerecrescens
Clostridium leptum = experiment: Antibacterial activity against Clostridium leptum by CLSI M11-A6 agar dilution method; type: functional
Flavonifractor plautii = experiment: Antibacterial activity against Clostridium orbiscindens by CLSI M11-A6 agar dilution method; type: functional
Clostridium scindens = experiment: Antibacterial activity against Clostridium scindens by CLSI M11-A6 agar dilution method; type: functional
Clostridium spiroforme = experiment: Antibacterial activity against Clostridium spiroforme by CLSI M11-A6 agar dilution method; type: functional; conditions: Thomasclavelia spiroformis
Clostridium sporogenes = experiment: Antibacterial activity against Clostridium sporogenes by CLSI M11-A6 agar dilution method; type: functional
Clostridium tertium = experiment: Antibacterial activity against Clostridium tertium by CLSI M11-A6 agar dilution method; type: functional
Clostridium sp. = experiment: Antibacterial activity against Clostridium sp. by CLSI M11-A6 agar dilution method; type: functional
[2] = system: Bifidobacterium adolescentis; experiment: Antibacterial activity against Bifidobacterium adolescentis by CLSI M11-A6 agar dilution method; type: functional
Bifidobacterium breve = experiment: Antibacterial activity against Bifidobacterium breve by CLSI M11-A6 agar dilution method; type: functional
[3] = Antibacterial activity against Bifidobacterium infantis by CLSI M11-A6 agar dilution method; type: functional, Bifidobacterium longum subsp. infantis; conditions: Bifidobacterium longum
Bifidobacterium longum = experiment: Antibacterial activity against Bifidobacterium longum by CLSI M11-A6 agar dilution method; type: functional
[4] = system: Catenibacterium mitsuokai; experiment: Antibacterial activity against Catenibacterium mitsuokai by CLSI M11-A6 agar dilution method; type: functional
Collinsella aerofaciens = experiment: Antibacterial activity against Colinsella aerofaciens by CLSI M11-A6 agar dilution method; type: functional
[5] = system: Coprobacillus cateniformis; experiment: Antibacterial activity against Coprobacillus cateniformis by CLSI M11-A6 agar dilution method; type: functional
Coriobacterium = experiment: Antibacterial activity against […] by CLSI M11-A6 agar dilution method; type: functional
Eggerthella lenta = experiment: Antibacterial activity against Eggerthella lenta by CLSI M11-A6 agar dilution method; type: functional
[6] = system: Propionibacterium propionicum; experiment: Antibacterial activity against Propionibacterium propionicus by CLSI M11-A6 agar dilution method; type: functional; conditions: Arachnia propionica
Ruminococcus obeum = experiment: Antibacterial activity against Ruminococcus obeum by CLSI M11-A6 agar dilution method; type: functional; conditions: Blautia obeum
[7] = system: Ruminococcus flavefaciens; experiment: Antibacterial activity against Ruminococcus flavefaciens by CLSI M11-A6 agar dilution method; type: functional
Blautia producta = experiment: Antibacterial activity against Ruminococcus productus by CLSI M11-A6 agar dilution method; type: functional
Anaerococcus tetradius = experiment: Antibacterial activity against Anaerococcus tetradius by CLSI M11-A6 agar dilution method; type: functional
Finegoldia magna = experiment: Antibacterial activity against Finegoldia magna by CLSI M11-A6 agar dilution method; type: functional
[8] = system: Peptoniphilus asaccharolyticus; experiment: Antibacterial activity against Peptoniphilus asaccharolyticus by CLSI M11-A6 agar dilution method; type: functional
[9] = system: Peptostreptococcus anaerobius; experiment: Antibacterial activity against Peptostreptococcus anaerobius by CLSI M11-A6 agar dilution method; type: functional
[10] = system: Streptococcus constellatus; experiment: Antibacterial activity against Streptococcus constellatus by CLSI M11-A6 agar dilution method; type: functional
[11] = system: Streptococcus intermedius; experiment: Antibacterial activity against Streptococcus intermedius by CLSI M11-A6 agar dilution method; type: functional
Parabacteroides merdae = experiment: Antibacterial activity against Parabacteroides merdae by CLSI M11-A6 agar dilution method; type: functional
Bacteroides fragilis = experiment: Antibacterial activity against Bacteroides fragilis by CLSI M11-A6 agar dilution method; type: functional
Bacteroides ovatus = experiment: Antibacterial activity against Bacteroides ovatus by CLSI M11-A6 agar dilution method; type: functional
Odoribacter splanchnicus = experiment: Antibacterial activity against Bacteroides splanchnicus by CLSI M11-A6 agar dilution method; type: functional
Bilophila wadsworthia = experiment: Antibacterial activity against Bilophila wadsworthia by CLSI M11-A6 agar dilution method; type: functional
Fusobacterium varium = experiment: Antibacterial activity against Fusobacterium varium by CLSI M11-A6 agar dilution method; type: functional
Prevotella buccae = experiment: Antibacterial activity against Prevotella buccae by CLSI M11-A6 agar dilution method; type: functional; conditions: Segatella buccae
Prevotella denticola = experiment: Antibacterial activity against Prevotella P denticola by CLSI M11-A6 agar dilution method; type: functional
Prevotella intermedia = experiment: Antibacterial activity against Prevotella intermedia by CLSI M11-A6 agar dilution method; type: functional
[12] = system: Prevotella melaninogenica; experiment: Antibacterial activity against Prevotella melaninogenica by CLSI M11-A6 agar dilution method; type: functional
Hoylesella oralis = experiment: Antibacterial activity against Prevotella oralis by CLSI M11-A6 agar dilution method; type: functional
[13] = system: Sutterella wadsworthensis; experiment: Antibacterial activity against Sutterella wadsworthensis by CLSI M11-A6 agar dilution method; type: functional

CN[C@H](CC(C)C)C(=O)N[C@H]1C(=O)N[C@@H](CC(N)=O)C(=O)N[C@H]2C(=O)N[C@H]3C(=O)N[C@H](C(=O)N[C@H](C(=O)O)c4cc(O)cc(O)c4-c4cc3ccc4O)[C@H](O)c3ccc(c(Cl)c3)Oc3cc2cc(c3O[C@@H]2O[C@H](CO)[C@@H](O)[C@H](O)[C@H]2O[C@H]2C[C@](C)(N)[C@H](O)[C@H](C)O2)Oc2ccc(cc2Cl)[C@H]1O [VANCOMYCIN]
MIC50 (Clostridioides difficile): 1 µg/mL (≈ 0.69 µM)
MIC90 (Clostridioides difficile): 2 µg/mL (≈ 1.38 µM)
MIC50 (Clostridium hathewayi): 1 µg/mL (≈ 0.69 µM)
MIC90 (Clostridium hathewayi): 1 µg/mL (≈ 0.69 µM)
MIC (Clostridium perfringens): 0.5 µg/mL (≈ 0.345 µM)
MIC50 (Clostridium perfringens): 0.5 µg/mL (≈ 0.345 µM)
MIC90 (Clostridium perfringens): 1 µg/mL (≈ 0.69 µM)
MIC50 (Clostridium butyricum): 1 µg/mL (≈ 0.69 µM)
MIC90 (Clostridium butyricum): 4 µg/mL (≈ 2.76 µM)
MIC50 [1]: 1 µg/mL (≈ 0.69 µM)
MIC90 [1]: 4 µg/mL (≈ 2.76 µM)
MIC50 (Clostridium leptum): 1 µg/mL (≈ 0.69 µM)
MIC90 (Clostridium leptum): 4 µg/mL (≈ 2.76 µM)
MIC50 (Flavonifractor plautii): 1 µg/mL (≈ 0.69 µM)
MIC90 (Flavonifractor plautii): 4 µg/mL (≈ 2.76 µM)
MIC50 (Clostridium scindens): 1 µg/mL (≈ 0.69 µM)
MIC90 (Clostridium scindens): 4 µg/mL (≈ 2.76 µM)
MIC50 (Clostridium spiroforme): 1 µg/mL (≈ 0.69 µM)
MIC90 (Clostridium spiroforme): 4 µg/mL (≈ 2.76 µM)
MIC50 (Clostridium sporogenes): 1 µg/mL (≈ 0.69 µM)
MIC90 (Clostridium sporogenes): 4 µg/mL (≈ 2.76 µM)
MIC50 (Clostridium tertium): 1 µg/mL (≈ 0.69 µM)
MIC90 (Clostridium tertium): 4 µg/mL (≈ 2.76 µM)
MIC50 (Clostridium sp.): 1 µg/mL (≈ 0.69 µM)
MIC90 (Clostridium sp.): 4 µg/mL (≈ 2.76 µM)
MIC50 [2]: 0.5 µg/mL (≈ 0.345 µM)
MIC90 [2]: 4 µg/mL (≈ 2.76 µM)
MIC50 (Bifidobacterium breve): 0.5 µg/mL (≈ 0.345 µM)
MIC90 (Bifidobacterium breve): 4 µg/mL (≈ 2.76 µM)
MIC50 [3]: 0.5 µg/mL (≈ 0.345 µM)
MIC90 [3]: 4 µg/mL (≈ 2.76 µM)
MIC50 (Bifidobacterium longum): 0.5 µg/mL (≈ 0.345 µM)
MIC90 (Bifidobacterium longum): 4 µg/mL (≈ 2.76 µM)
MIC50 [4]: 0.5 µg/mL (≈ 0.345 µM)
MIC90 [4]: 4 µg/mL (≈ 2.76 µM)
MIC50 (Collinsella aerofaciens): 0.5 µg/mL (≈ 0.345 µM)
MIC90 (Collinsella aerofaciens): 4 µg/mL (≈ 2.76 µM)
MIC50 [5]: 0.5 µg/mL (≈ 0.345 µM)
MIC90 [5]: 4 µg/mL (≈ 2.76 µM)
MIC50 (Coriobacterium): 0.5 µg/mL (≈ 0.345 µM)
MIC90 (Coriobacterium): 4 µg/mL (≈ 2.76 µM)
MIC50 (Eggerthella lenta): 0.5 µg/mL (≈ 0.345 µM)
MIC90 (Eggerthella lenta): 4 µg/mL (≈ 2.76 µM)
MIC50 [6]: 0.5 µg/mL (≈ 0.345 µM)
MIC90 [6]: 4 µg/mL (≈ 2.76 µM)
MIC50 (Ruminococcus obeum): 0.5 µg/mL (≈ 0.345 µM)
MIC90 (Ruminococcus obeum): 0.5 µg/mL (≈ 0.345 µM)
MIC50 [7]: 0.5 µg/mL (≈ 0.345 µM)
MIC90 [7]: 1 µg/mL (≈ 0.69 µM)
MIC50 (Blautia producta): 0.5 µg/mL (≈ 0.345 µM)
MIC90 (Blautia producta): 1 µg/mL (≈ 0.69 µM)
MIC50 (Anaerococcus tetradius): 0.5 µg/mL (≈ 0.345 µM)
MIC90 (Anaerococcus tetradius): 1 µg/mL (≈ 0.69 µM)
MIC50 (Finegoldia magna): 0.5 µg/mL (≈ 0.345 µM)
MIC90 (Finegoldia magna): 1 µg/mL (≈ 0.69 µM)
MIC50 [8]: 0.5 µg/mL (≈ 0.345 µM)
MIC90 [8]: 1 µg/mL (≈ 0.69 µM)
MIC50 [9]: 0.5 µg/mL (≈ 0.345 µM)
MIC90 [9]: 1 µg/mL (≈ 0.69 µM)
MIC50 [10]: 2 µg/mL (≈ 1.38 µM)
MIC90 [10]: 2 µg/mL (≈ 1.38 µM)
MIC50 [11]: 2 µg/mL (≈ 1.38 µM)
MIC90 [11]: 2 µg/mL (≈ 1.38 µM)
MIC50 (Parabacteroides merdae): 128 µg/mL (≈ 88.3 µM)
MIC90 (Parabacteroides merdae): 128 µg/mL (≈ 88.3 µM)
MIC50 (Bacteroides fragilis): 64 µg/mL (≈ 44.2 µM)
MIC90 (Bacteroides fragilis): 64 µg/mL (≈ 44.2 µM)
MIC50 (Bacteroides ovatus): 128 µg/mL (≈ 88.3 µM)
MIC90 (Bacteroides ovatus): 128 µg/mL (≈ 88.3 µM)
MIC50 (Odoribacter splanchnicus): 128 µg/mL (≈ 88.3 µM)
MIC90 (Odoribacter splanchnicus): > 128 µg/mL
MIC (Bilophila wadsworthia): > 128 µg/mL
MIC50 (Bilophila wadsworthia): > 128 µg/mL
MIC90 (Bilophila wadsworthia): > 128 µg/mL
MIC (Fusobacterium varium): > 128 µg/mL
MIC50 (Fusobacterium varium): > 128 µg/mL
MIC90 (Fusobacterium varium): > 128 µg/mL
MIC50 (Prevotella buccae): 32 µg/mL (≈ 22.1 µM)
MIC90 (Prevotella buccae): > 128 µg/mL
MIC50 (Prevotella denticola): 32 µg/mL (≈ 22.1 µM)
MIC90 (Prevotella denticola): > 128 µg/mL
MIC50 (Prevotella intermedia): 32 µg/mL (≈ 22.1 µM)
MIC90 (Prevotella intermedia): > 128 µg/mL
MIC50 [12]: 32 µg/mL (≈ 22.1 µM)
MIC90 [12]: > 128 µg/mL
MIC50 (Hoylesella oralis): 32 µg/mL (≈ 22.1 µM)
MIC90 (Hoylesella oralis): > 128 µg/mL
MIC [13]: > 128 µg/mL
MIC50 [13]: > 128 µg/mL
MIC90 [13]: > 128 µg/mL
